Reference: article PMC11289669, “BAR502/fibrate conjugates: synthesis, biological evaluation and metabolic profile” (Frontiers in Chemistry, 2024)
“And” between values parts separate entries of the source, which are not always exact repeats. Equal values may be shown once.

Legend:
[1] = target: T1, GPBAR1 (Homo sapiens, UniProt Q8TDU6); assay: GPBAR1 transactivation (CRE-luciferase reporter) assay in HEK-293T cells; type: cell-based; details: for Emax: 18 h, read-out: GPBAR1 efficacy (% vs. TLCA); for Emax / GPBAR1 efficacy (% vs. TLCA): transactivation on HEK-293T cells, TLCA 10 μM = 100%; for EC50: transactivation assay, HEK-293T cells
T1 construct: expressed in transfected cells; host or cells: HEK-293T
T1 sequence (Q8TDU6 1-330): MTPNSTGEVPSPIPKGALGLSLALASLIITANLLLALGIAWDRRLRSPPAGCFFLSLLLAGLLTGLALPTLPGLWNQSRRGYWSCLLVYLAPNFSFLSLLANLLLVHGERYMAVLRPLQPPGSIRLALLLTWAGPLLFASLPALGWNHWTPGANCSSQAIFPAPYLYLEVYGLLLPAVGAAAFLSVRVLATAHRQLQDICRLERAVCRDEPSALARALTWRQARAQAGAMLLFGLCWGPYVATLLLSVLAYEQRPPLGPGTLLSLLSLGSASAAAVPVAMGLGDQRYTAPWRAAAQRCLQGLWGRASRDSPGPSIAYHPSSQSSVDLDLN
Procedure: (§1) HepG2 and HEK-293T cells were cultured at 37 °C in minimal essential medium (MEM) and Dulbecco’s Modified Eagle Medium (DMEM) respectively, supplemented with 10% fetal bovine serum, 1% L-glutamine, 100 U/mL penicillin, and 100 μg/mL streptomycin. To investigate FXR-mediated transactivation, the HepG2 cells were transfected with 200 ng of the reporter vector p (hsp27)TK-Luc containing the FXR response element IR1 cloned from the promoter of heat shock protein 27 (hsp27), plus 100 ng pSG5-FXR, 100 ng pSG5-RXR, and 100 ng pGL4.70 Renilla. To evaluate GPBAR1 mediated transactivation, HEK-293T cells were transfected with 200 ng of human pGL4.29 (Promega), a reporter vector containing a cAMP response element (CRE) that drives the transcription of the luciferase reporter gene luc2P, with 100 ng of pCMVSPORT6-human GPBAR1, and with 100 ng of pGL4.70. At 24 h post-transfection, cells were stimulated 18 h with 10 μM TLCA (taurolithocholic acid a GPBAR1 agonist) or CDCA (FXR agonist) and compounds. To calculate the EC50 on FXR and GPBAR1, dose-response curves were performed in HEK-293T cells transfected as described above and then treated with increasing concentrations of compounds (from 0.1 to 50 µM). After treatments, cells were lysed in 100 μL of lysis buffer (25 mM Tris-phosphate, pH 7.8; 2 mM DTT; 10% glycerol; 1% Triton X-100), and 10 μL of cellular lysate was assayed for luciferase activity using the Firfly &Renilla Luciferase assay kit (Biotium). Luminescence was measured using Glomax 20/20 luminometer (Promega). Luciferase activities were assayed and normalized with Renilla activities.

[2] = target: T2, PPARα (Homo sapiens, UniProt Q07869); assay: AlphaScreen coactivator (SRC-1) recruitment assay on PPARα; type: biochemical; details: AlphaScreen SRC-1 recruitment; compounds at 50 µM (footnote); fenofibrate = 100%
T2 construct: 20 nM PPARα LBD GST fused (Thermo Scientific); purchased Thermo Scientific
T2 sequence (Q07869 239-466 limits assumed): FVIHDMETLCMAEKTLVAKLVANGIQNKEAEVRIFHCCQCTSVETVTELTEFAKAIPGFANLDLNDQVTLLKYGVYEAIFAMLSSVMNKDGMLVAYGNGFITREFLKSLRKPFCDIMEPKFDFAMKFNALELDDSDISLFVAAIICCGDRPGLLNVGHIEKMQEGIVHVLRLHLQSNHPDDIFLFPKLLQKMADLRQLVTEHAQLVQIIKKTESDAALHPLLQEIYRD
Procedure: Compounds’ ability to mediate cofactor recruitment was evaluated by employing AlphaScreen GST Detection Kit (PerkinElmer). Particularly, FXR agonism was evaluated employing 10 nM FXR-LBD GST-fused (Thermo Scientific) and 30 nM of biotinylated SRC1 peptide ([…]) in the presence of 20 μg/mL donor and acceptor beads and in buffer containing 50 mM Tris-HCl (pH7.4), 20 mM KCl, 1 mM DTT, and 0.1% BSA. For PPARα assay, a buffer containing 50 mM MOPS, 50 mM NaF, 0.05 mM CHAPS, and 0.05% BSA (pH = 7.4) was used, and 20 nM PPARα LBD GST fused (Thermo Scientific) and 60 nM of biotinylated SRC1 peptide were employed. Both acceptor and donor beads were added to reach 20 μg/mL final concentration. Incubations were performed in a final volume of 25 μL employing 384 wells Optiplate and Alpha signal was measured with Envision 2,105 (Perkin Elmer) multimode plate reader. […]

[3] = target: T3, FXR (Homo sapiens, UniProt Q96RI1); assay: AlphaScreen coactivator (SRC-1) recruitment assay on FXR; type: biochemical; details: for FXR efficacy (% vs. CDCA): AlphaScreen SRC-1 recruitment, compounds at 10 μM, CDCA = 100%
T3 sequence (Q96RI1 262-486 limits assumed): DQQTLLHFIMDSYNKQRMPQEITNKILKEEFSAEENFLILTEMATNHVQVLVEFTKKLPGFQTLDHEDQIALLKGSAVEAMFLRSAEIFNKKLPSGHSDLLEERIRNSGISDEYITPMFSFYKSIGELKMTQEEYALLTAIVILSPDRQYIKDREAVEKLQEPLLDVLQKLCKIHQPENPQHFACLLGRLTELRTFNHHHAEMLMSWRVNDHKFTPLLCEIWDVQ
Procedure: Compounds’ ability to mediate cofactor recruitment was evaluated by employing AlphaScreen GST Detection Kit (PerkinElmer). Particularly, FXR agonism was evaluated employing 10 nM FXR-LBD GST-fused (Thermo Scientific) and 30 nM of biotinylated SRC1 peptide ([…]) in the presence of 20 μg/mL donor and acceptor beads and in buffer containing 50 mM Tris-HCl (pH7.4), 20 mM KCl, 1 mM DTT, and 0.1% BSA. For PPARα assay, a buffer containing 50 mM MOPS, 50 mM NaF, 0.05 mM CHAPS, and 0.05% BSA (pH = 7.4) was used, and 20 nM PPARα LBD GST fused (Thermo Scientific) and 60 nM of biotinylated SRC1 peptide were employed. Both acceptor and donor beads were added to reach 20 μg/mL final concentration. Incubations were performed in a final volume of 25 μL employing 384 wells Optiplate and Alpha signal was measured with Envision 2,105 (Perkin Elmer) multimode plate reader. For efficacy, compounds were tested at 10 μM for FXR and 50 μM for PPARα.

[4] = target: T4, FXR (Homo sapiens, UniProt Q96RI1); assay: FXR transactivation (luciferase reporter) assay in HepG2 cells; type: cell-based; details: for EC50: HepG2 cells
T4 construct: expressed in transfected cells; host or cells: HepG2 (the text says EC50 dose-response curves were run in HEK-293T)
T4 sequence (Q96RI1 1-486): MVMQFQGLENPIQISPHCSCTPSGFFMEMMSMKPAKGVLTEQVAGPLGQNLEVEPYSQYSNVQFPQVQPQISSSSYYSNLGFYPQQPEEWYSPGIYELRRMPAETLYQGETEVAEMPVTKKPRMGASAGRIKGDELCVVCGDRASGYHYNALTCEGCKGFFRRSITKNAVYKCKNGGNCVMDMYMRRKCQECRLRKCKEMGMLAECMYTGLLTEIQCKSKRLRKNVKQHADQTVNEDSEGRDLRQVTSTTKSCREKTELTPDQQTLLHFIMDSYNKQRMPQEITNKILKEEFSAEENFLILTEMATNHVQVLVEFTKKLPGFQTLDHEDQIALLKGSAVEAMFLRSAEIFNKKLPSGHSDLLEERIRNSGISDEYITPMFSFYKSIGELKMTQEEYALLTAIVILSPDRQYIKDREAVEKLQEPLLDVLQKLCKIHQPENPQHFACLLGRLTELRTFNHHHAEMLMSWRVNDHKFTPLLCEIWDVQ
T4 sequence (P19793 1-462 partner): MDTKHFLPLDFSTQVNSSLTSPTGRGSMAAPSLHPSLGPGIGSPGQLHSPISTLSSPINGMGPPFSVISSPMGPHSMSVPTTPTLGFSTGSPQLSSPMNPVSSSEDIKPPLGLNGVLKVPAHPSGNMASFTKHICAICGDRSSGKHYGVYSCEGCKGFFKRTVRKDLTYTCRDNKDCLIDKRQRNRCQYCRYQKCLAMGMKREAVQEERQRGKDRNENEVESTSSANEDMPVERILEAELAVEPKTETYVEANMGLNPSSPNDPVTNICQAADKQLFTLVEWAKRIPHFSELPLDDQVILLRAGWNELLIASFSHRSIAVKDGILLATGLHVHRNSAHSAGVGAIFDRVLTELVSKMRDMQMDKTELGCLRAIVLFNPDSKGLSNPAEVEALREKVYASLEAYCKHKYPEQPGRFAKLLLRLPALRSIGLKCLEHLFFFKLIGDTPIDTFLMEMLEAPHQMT
Procedure: as §1

Compound | Emax [1] | PPARα efficacy (% vs. fenofibrate) [2] | FXR efficacy (% vs. CDCA) [3] | FXR efficacy vs. CDCA (transactivation) [4] | EC50 [4] | EC50 [1] | GPBAR1 efficacy (% vs. TLCA) [1] | EC50 ([3]; AlphaScreen coactivator recruitment, FXR with SRC-1)
CC[C@@H]1C2C[C@H](O)CC[C@]2(C)C2CC[C@@]3(C)C(CC[C@@H]3[C@H](C)CCOC(=O)C(C)(C)CCCOc3cc(C)ccc3C)C2[C@@H]1O (stereo partly drawn) [Compound 7] | 14 ± 1.3% | 22 ± 18% | 4.1 ± 0.6% |  |  |  |  | 
CC[C@@H]1C2C[C@H](OC(=O)C(C)(C)Oc3ccc(C(=O)c4ccc(Cl)cc4)cc3)CC[C@]2(C)C2CC[C@@]3(C)C(CC[C@@H]3[C@H](C)CCO)C2[C@@H]1O (stereo partly drawn) [Compound 5] | 40 ± 0.7% | 6.6 ± 1.9% |  |  |  |  |  | 
CCC1C(O)C2C3CCC(C(C)CC(=O)O)C3(C)CCC2C2(C)CCC(O)CC12 (stereo not drawn) [BAR505, reference compound] |  | 40% |  | 457% | 1.9 ± 0.14 µM | 3.2 ± 1.1 µM | 103.6% | 
CC[C@@H]1C2C[C@H](OC(=O)C(C)(C)CCCOc3cc(C)ccc3C)CC[C@]2(C)C2CC[C@@]3(C)C(CC[C@@H]3[C@H](C)CCO)C2[C@@H]1O (stereo partly drawn) [Compound 8] | 29.4 ± 5.1% | 5.3 ± 0.8% |  |  |  |  |  | 
CC[C@@H]1C2C[C@H](OC(=O)C(C)(C)Oc3ccc(Cl)cc3)CC[C@]2(C)C2CC[C@@]3(C)C(CC[C@@H]3[C@H](C)CCOC(=O)C(C)(C)Oc3ccc(Cl)cc3)C2[C@@H]1O (stereo partly drawn) [Compound 3] | 101% | 27 ± 10% | 48% and 48.0 ± 5.5% |  | 25 ± 0.01 µM | 1.8 ± 0.35 µM | 101.0 ± 0.4% | 17.9 ± 2.6 µM
CC[C@@H]1C2C[C@H](OC(=O)C(C)(C)Oc3ccc(Cl)cc3)CC[C@]2(C)C2CC[C@@]3(C)C(CC[C@@H]3[C@H](C)CCO)C2[C@@H]1O (stereo partly drawn) [Compound 2] | 46 ± 16% |  |  |  |  |  |  | 
CC[C@@H]1C2C[C@H](O)CC[C@]2(C)C2CC[C@@]3(C)C(CC[C@@H]3[C@H](C)CCOC(=O)C(C)(C)Oc3ccc(C(=O)c4ccc(Cl)cc4)cc3)C2[C@@H]1O (stereo partly drawn) [Compound 4] | 41 ± 3% | 13 ± 3% | 14.0 ± 1.8% |  |  |  |  | 
CC[C@@H]1C2C[C@H](OC(=O)C(C)(C)CCCOc3cc(C)ccc3C)CC[C@]2(C)C2CC[C@@]3(C)C(CC[C@@H]3[C@H](C)CCOC(=O)C(C)(C)CCCOc3cc(C)ccc3C)C2[C@@H]1O (stereo partly drawn) [Compound 9] | 28.5 ± 0.4% |  | 5.1 ± 1.9% |  |  |  |  | 
CC[C@@H]1C2C[C@H](OC(=O)C(C)(C)Oc3ccc(C(=O)c4ccc(Cl)cc4)cc3)CC[C@]2(C)C2CC[C@@]3(C)C(CC[C@@H]3[C@H](C)CCOC(=O)C(C)(C)Oc3ccc(C(=O)c4ccc(Cl)cc4)cc3)C2[C@@H]1O (stereo partly drawn) [Compound 6] | 30 ± 17% | 1.7 ± 0.5% |  |  |  |  |  | 
